Measured values reported in a melting point compilation (Tetko et al.).

| Structure (SMILES) | melting point |
| --- | --- |
| Cc1nnc2ccc(Cl)nn12 | 103 to 105 °C |
| N#Cc1ccc(Cl)cc1NCC1CC1 | 52 to 54 °C |
| Cc1[nH]ncc1S(=O)(=O)Cl | 95 to 97 °C |
| COCCc1nnc(-c2cccc(C(=O)O)c2)o1 | 156 to 158 °C |
| CC(=O)N1CCN(CC(N)=NO)CC1 | 199 to 201 °C |
| CC(=O)c1cnc2cc(C)nn2c1C | 144 to 146 °C |
| O=C(O)Cc1csc(NC(=O)c2ccc(Br)o2)n1 | 214 to 216 °C |
| Nc1ncc([N+](=O)[O-])cc1C(=O)O | 239 to 241 °C |
| O=S1(=O)CCCN1c1ccc(Br)cc1F | 89 to 91 °C |
| Cc1cc(Oc2cnccn2)ccc1N | 125 to 127 °C |
| O=C(O)CNCCO | 184 to 186 °C |
| O=C(CCl)Nc1cc(-n2cnnn2)ccc1F | 185 to 187 °C |
| O=C1CCCc2nc(-c3ccccc3Br)sc21 | 130 to 132 °C |
| O=C(O)c1cc(S(=O)(=O)N2CCCC2)ccc1Cl | 194 to 196 °C |
| Sc1nc(-c2ccccc2Cl)no1 | 100 to 102 °C |
| NC(=NO)c1cccc(NC(=O)C2CC2)c1 | 229 to 231 °C |
| COc1ccccc1C(CN)NC(=O)OC(C)(C)C (stereo unspecified) | 145 to 147 °C |
| COc1ccc(OC)c(-c2csc(N)n2)c1 | 113 to 115 °C |
| Nc1nc2ccccc2n1N | 259 to 261 °C |
| O=C(O)c1ccc(F)c(S(=O)(=O)N2CCCC2)c1 | 223 to 225 °C |
| Nc1nc(-c2ccc[nH]2)cs1 | 155 to 159 °C |
| NC(=O)c1cc(N)ccc1F | 137 to 139 °C |

| Structure (SMILES) | melting point |
| --- | --- |
| Nc1ccc(-c2nnc(O)o2)cc1 | 166 to 168 °C |
| NS(=O)(=O)N1CCC(OC(=O)C(F)(F)F)CC1 | 126 to 128 °C |
| CN(C)C(=N)CC#N | 79 to 81 °C |
| CNCc1cc(Br)ccc1[N+](=O)[O-] | 29 to 31 °C |
| O=C(CCl)N1CCN(S(=O)(=O)c2ccccc2Cl)CC1 | 215 to 217 °C |
| Cn1c(N)nnc1S | 278 to 280 °C |
| Cc1cc(S(N)(=O)=O)c(C)cc1Br | 207 to 209 °C |
| Nc1ccc(S(=O)(=O)Nc2ccc(Cl)cc2)cc1N | 146 to 150 °C |
| CC(C)(C)S(=O)(=O)Cc1ccc(N)cc1 | 211 to 213 °C |
| Cc1nc([N+](=O)[O-])cn1CC(=O)O | 244 to 246 °C |
| CC(O)c1ccc(NC(=O)c2ccccc2)cc1 (stereo unspecified) | 164 to 166 °C |
| CC(C)Oc1ccc(C(=O)O)cn1 | 122 to 124 °C |
| O=C(O)Cc1c[nH]c2cccc(Br)c12 | 184 to 186 °C |
| c1ccc(-c2cc[nH]c2)nc1 | 126 to 128 °C |
| O=C(O)c1cnn(-c2ncccc2Cl)c1C(F)F | 178 to 180 °C |
| N#Cc1ccc(C(F)(F)F)nc1Cl | 38 to 40 °C |
| N#Cc1ccc(N2CCC(C(=O)O)CC2)nc1 | 174 to 176 °C |
| O=C(O)c1c[nH]cc1-c1ccccc1 | 212 to 214 °C |
| COc1ccc(C(C)C(=O)O)cc1 (stereo unspecified) | 52 to 54 °C |
| CCC(=O)Cc1ccc(Cl)cc1Cl | 37 to 39 °C |
| O=C(O)CNC(=O)c1cc(-c2ccccc2)on1 | 208 to 210 °C |
| Cc1nnc2c(N)cc(Cl)nn12 | 227 to 229 °C |

| Structure (SMILES) | melting point |
| --- | --- |
| Cc1ccc(Cn2nc(C)c(C(=O)O)c2C)cc1 | 134 to 136 °C |
| O=C(NCc1ccccc1)c1cc2ccccc2cc1O | 180 to 182 °C |
| O=C(O)c1ccc(-c2nnc(-c3ccccc3)o2)cc1 | 299 to 301 °C |
| CC1(CO)CCN(Cc2ccccc2)CC1 | 59 to 61 °C |
| CC(C)(C)OC(=O)N1CC2NCCOC2C1 (stereo unspecified) | 54 to 56 °C |
| CC(C)(C)n1nc(C(=O)O)cc1C1CC1 | 119 to 121 °C |
| Cn1c(CC(N)=NO)nc2ccccc21 | 240 to 242 °C |
| NC(=NO)c1ccc(OCc2ccccc2)cc1 | 167 to 169 °C |
| O=C(O)c1conc1-c1ccc(Cl)cc1 | 182 to 184 °C |
| O=C(CSc1ccccc1C(=O)O)NCC1CCCCC1 | 118 to 120 °C |
| CC(C)CC(Cc1cccc(Br)c1)C(=O)O (stereo unspecified) | 66 to 68 °C |
| CN1CC(=O)Nc2cccnc21 | 161 to 163 °C |
| Nc1ccnc(OCC(F)(F)F)c1 | 39 to 41 °C |
| CCCC1CCc2[nH]c(=O)sc2C1 (stereo unspecified) | 119 to 121 °C |
| Nc1cc(Cl)c(OCC(F)(F)F)c(Cl)c1 | 89 to 91 °C |
| Cc1cccc(C)c1-n1nnnc1S | 146 to 148 °C |
| CS(=O)(=O)Cc1ccc(C(=O)O)o1 | 186 to 188 °C |
| CCCCn1c(=O)[nH]c(=O)c2c1nc(CO)n2CCC | 134 to 136 °C |
| NC(=O)CO | 124 to 126 °C |
| CC(C)CNC(=O)c1ccc(N)cc1 | 119 to 121 °C |
| O=C1CCOc2c1cc(Br)cc2[N+](=O)[O-] | 104 to 106 °C |
| CC(C)Oc1ccc(N)cc1C#N | 39 to 41 °C |

| Structure (SMILES) | melting point |
| --- | --- |
| CC(C)C(N)=S | 42 to 44 °C |
| CCOC(=O)c1nnc(C)n1C1CC1 | 109 to 111 °C |
| Nc1c2c(nn1-c1ccccc1)CCC2 | 180 to 182 °C |
| CNS(=O)(=O)c1ccc(/C=C/C(=O)O)cc1 | 259 to 261 °C |
| Nc1oc2ccccc2c(=O)c1C=O | 249 to 251 °C |
| Nc1cccc(Oc2ccnc3ccccc23)c1 | 114 to 116 °C |
| S=c1[nH][nH]c(=NCCc2cccs2)s1 | 82 to 84 °C |
| FC(F)(F)c1ccc(-n2nnnc2CCl)cc1 | 56 to 58 °C |
| O=C(O)c1cccc(NC(=O)c2cccnc2)c1 | 304 to 306 °C |
| COCCOc1c(N)cccc1Cl | 56 to 58 °C |
| COc1ccc(C(=O)NCC(=O)O)cc1[N+](=O)[O-] | 98 to 100 °C |
| NS(=O)(=O)c1ccc(SCC(=O)O)cc1 | 157 to 159 °C |
| CC(Br)c1ccc2ccccc2c1 (stereo unspecified) | 62 to 64 °C |
| COCC(N)=O | 86 to 88 °C |
| CCCCC1NC(=O)NC1=O (stereo unspecified) | 139 to 141 °C |
| CCN(CC)S(=O)(=O)c1cccc(N)c1 | 84 to 86 °C |
| O=C(O)CCS(=O)(=O)c1ccc2c(c1)CCC2 | 124 to 126 °C |
| Nn1c(S)nnc1-c1ccccc1Cl | 110 to 113 °C |
| O=C(O)CSC1CCS(=O)(=O)C1 (stereo unspecified) | < 17 °C |
| NC(=O)Nc1ccccc1[N+](=O)[O-] | 186 to 188 °C |
| O=C(O)C1(Br)CCCC1 | 66 to 68 °C |
| COC(=O)c1ccc(OCCBr)c(Cl)c1 | 72 to 74 °C |

| Structure (SMILES) | melting point |
| --- | --- |
| NCc1cccc(NC(=O)c2cccc(F)c2)c1 | 100 to 102 °C |
| Nc1nnc(C2Cc3ccccc3O2)o1 (stereo unspecified) | 198 to 200 °C |
| Nc1ccc(F)c(N2CCCC2=O)c1 | 122 to 124 °C |
| CCOC(=O)c1cnc2c(OC)ccc(OC)c2c1Cl | 87 to 89 °C |
| Cc1nc(C(C)(C)C)nc(Cl)c1C | 36 to 38 °C |
| Cc1ccc(N2C(=O)C=CC2=O)cc1 | 151 to 153 °C |
| CCCOc1ccc(OCCBr)cc1 | 45 to 47 °C |
| CC(C)(C)C(=O)Nc1ccccc1C(=O)O | 157 to 159 °C |
| CS(=O)c1ccc(C=O)cc1 (stereo unspecified) | 88 to 90 °C |
| O=C(O)c1noc(-c2ccc(F)cc2)n1 | 129 to 131 °C |
| Cc1nn(C)c(C)c1OCC(=O)O | 172 to 174 °C |
| N#Cc1ccccc1CN1CCOC1=O | 91 to 93 °C |
| O=C(O)c1ccc(N2CCCS2(=O)=O)cc1 | 247 to 249 °C |
| N#CCC(=O)NC1CCCCC1 | 132 to 134 °C |
| Nc1ccccc1C(=O)N1CCCCC1 | 79 to 83 °C |
| CCOC(C)C(N)=NO (stereo unspecified) | 88 to 90 °C |
| CNc1ccc([N+](=O)[O-])c(C)c1 | 90 to 92 °C |
| NS(=O)(=O)NCc1cccnc1 | 129 to 131 °C |
